Test results from US6525178B2, “PGC-1, a novel brown fat PPARgamma coactivator” (Dana-Farber Cancer Institute, priority 1997, dated 2003).
Blank lines part the entries; values can stand above or below the molecule they belong to.

How the values were obtained:
retinoic acid receptor = target: T1, retinoic acid receptor (Homo sapiens, UniProt P10276); test: In vitro binding of GST-PGC-1 to in vitro-translated nuclear receptor; conditions: ligand 1 μM
T1 sequence (P10276 1-462): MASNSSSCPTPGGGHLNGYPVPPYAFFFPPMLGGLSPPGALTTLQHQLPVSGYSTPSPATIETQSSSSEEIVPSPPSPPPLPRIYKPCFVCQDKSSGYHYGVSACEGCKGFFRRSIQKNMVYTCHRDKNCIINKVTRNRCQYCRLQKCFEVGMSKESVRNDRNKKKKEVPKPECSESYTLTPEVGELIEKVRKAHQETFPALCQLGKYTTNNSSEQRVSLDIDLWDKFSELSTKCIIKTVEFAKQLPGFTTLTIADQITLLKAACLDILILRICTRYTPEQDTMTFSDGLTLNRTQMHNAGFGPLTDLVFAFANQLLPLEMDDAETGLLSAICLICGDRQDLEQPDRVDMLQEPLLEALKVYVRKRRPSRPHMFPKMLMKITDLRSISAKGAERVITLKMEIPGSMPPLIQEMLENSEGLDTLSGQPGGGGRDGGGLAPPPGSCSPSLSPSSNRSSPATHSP
T1 sequence (O70343 36-797 partner limits assumed): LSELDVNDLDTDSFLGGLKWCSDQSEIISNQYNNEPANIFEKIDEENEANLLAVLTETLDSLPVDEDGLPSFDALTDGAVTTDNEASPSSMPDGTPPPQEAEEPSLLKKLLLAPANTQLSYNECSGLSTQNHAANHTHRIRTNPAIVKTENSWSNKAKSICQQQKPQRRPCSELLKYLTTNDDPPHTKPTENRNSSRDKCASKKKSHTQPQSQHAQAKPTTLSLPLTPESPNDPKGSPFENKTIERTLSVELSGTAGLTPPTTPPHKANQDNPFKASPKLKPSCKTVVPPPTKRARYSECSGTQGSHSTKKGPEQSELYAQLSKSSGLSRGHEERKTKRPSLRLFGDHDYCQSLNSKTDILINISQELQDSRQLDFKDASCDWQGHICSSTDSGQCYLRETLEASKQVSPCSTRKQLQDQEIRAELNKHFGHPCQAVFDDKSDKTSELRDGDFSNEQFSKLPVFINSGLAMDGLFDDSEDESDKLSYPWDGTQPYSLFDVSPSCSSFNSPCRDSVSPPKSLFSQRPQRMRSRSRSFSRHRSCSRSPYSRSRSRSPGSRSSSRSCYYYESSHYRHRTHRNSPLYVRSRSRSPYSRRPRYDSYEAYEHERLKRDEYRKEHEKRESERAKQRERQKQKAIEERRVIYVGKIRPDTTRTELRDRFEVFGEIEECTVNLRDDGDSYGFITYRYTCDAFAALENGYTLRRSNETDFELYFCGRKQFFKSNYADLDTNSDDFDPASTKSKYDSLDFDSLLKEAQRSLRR

PPARδ = target: T2, PPARδ (Homo sapiens, UniProt Q03181); test: as above; conditions: ligand 1 μM
T2 construct: made in house; host or cells: receptor: reticulocyte lysate in vitro translation (Promega TNT); GST-PGC-1: E. coli
T2 sequence (Q03181 1-441): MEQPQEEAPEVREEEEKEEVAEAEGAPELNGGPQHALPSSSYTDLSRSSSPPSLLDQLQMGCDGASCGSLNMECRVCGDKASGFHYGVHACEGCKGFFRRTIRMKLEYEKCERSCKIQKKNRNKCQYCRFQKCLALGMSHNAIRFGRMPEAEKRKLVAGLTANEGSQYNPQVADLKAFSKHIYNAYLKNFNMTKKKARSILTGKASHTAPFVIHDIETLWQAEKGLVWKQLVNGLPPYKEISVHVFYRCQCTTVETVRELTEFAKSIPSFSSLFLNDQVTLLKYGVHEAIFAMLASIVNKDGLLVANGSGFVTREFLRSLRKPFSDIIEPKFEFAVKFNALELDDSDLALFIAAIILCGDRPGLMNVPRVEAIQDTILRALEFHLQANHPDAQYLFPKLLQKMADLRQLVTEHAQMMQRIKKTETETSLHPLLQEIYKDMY
T2 sequence (O70343 36-797 partner limits assumed): T1 sequence (O70343 36-797 partner limits assumed)
Experimental: (§1) The assays were carried out as follows.

HIB 1B brown fat cells = test: Northern analysis of PGC-1 and UCP-1 mRNA in treated HIB 1B brown fat cells; type: cell-based, mouse; conditions: HIB 1B cells, 1 μM, 10 hr
Description: Cold is sensed in the central nervous system and results in increased sympathetic output to peripheral tissues, including muscle and brown fat Himms-Hagen (1989) Can. J. Physiol Pharmcol. 67:394-401). Cold exposure can be mimicked, in terms of brown adipocyte precursor cell growth and the induction of UCP-1, by exposure of cultured brown fat cells to β-adrenergic agonists (Rehnmark et al. (1990) J. Biol. Chem. 25:16464-16471). To determine if PGC-1 gene expression is also sensitive to β-adrenergic agonists, HIB 1B brown fat cells were treated with isoproterenol (1 μM), a nonsubtype selective β agonist, for 10 hr. Total cellular RNA was isolated and analyzed using PGC-1 and UCP-1 cDNA probes.
Briefly, HIB 1B brown fat preadipocytes were differentiated as described herein. After 6 days, cells were approximately 80% differentiated.

PPARα = target: T3, PPARα (Homo sapiens, UniProt Q07869); test: In vitro binding of GST-PGC-1 to in vitro-translated nuclear receptor; conditions: ligand 1 μM
T3 construct: made in house; host or cells: receptor: reticulocyte lysate in vitro translation (Promega TNT); GST-PGC-1: E. coli
T3 sequence (Q07869 1-468): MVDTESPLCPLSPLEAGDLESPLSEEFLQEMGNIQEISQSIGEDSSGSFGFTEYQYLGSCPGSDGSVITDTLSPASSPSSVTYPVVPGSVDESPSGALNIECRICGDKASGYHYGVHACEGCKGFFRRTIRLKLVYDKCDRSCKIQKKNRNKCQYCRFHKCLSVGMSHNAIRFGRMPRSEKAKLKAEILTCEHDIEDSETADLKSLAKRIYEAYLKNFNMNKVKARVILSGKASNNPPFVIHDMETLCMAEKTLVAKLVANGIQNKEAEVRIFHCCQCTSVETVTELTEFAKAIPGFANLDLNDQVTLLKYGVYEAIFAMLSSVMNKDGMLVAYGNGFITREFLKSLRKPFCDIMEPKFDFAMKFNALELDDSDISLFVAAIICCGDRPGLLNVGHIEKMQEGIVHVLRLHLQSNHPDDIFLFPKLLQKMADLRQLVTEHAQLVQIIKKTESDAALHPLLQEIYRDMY
T3 sequence (O70343 36-797 partner limits assumed): T1 sequence (O70343 36-797 partner limits assumed)
Experimental: as §1

PPARγ = test: Binding of in vitro-translated PGC-1 C-terminal deletions to immobilized PPARγ fusion protein; parameters: species or system mouse; conditions: 35S-labelled PGC-1 deletions
PPARγ, sequence (P37238 183-505 limits assumed): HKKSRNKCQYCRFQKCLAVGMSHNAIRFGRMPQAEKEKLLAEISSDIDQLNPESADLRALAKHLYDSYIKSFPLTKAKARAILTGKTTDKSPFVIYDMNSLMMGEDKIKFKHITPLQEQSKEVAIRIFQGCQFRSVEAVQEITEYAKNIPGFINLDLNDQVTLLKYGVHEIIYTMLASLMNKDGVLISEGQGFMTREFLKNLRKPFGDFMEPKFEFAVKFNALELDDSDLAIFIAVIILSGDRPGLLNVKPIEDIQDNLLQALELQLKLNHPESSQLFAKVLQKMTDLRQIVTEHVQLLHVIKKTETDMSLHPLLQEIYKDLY
Description: The interaction between nuclear receptors and certain coactivators such as SRC-1 or CBP is ligand dependent (Kamai et al. (1996) Cell 84:403-414) and involves an LXXLL (SEQ ID NO:3) motif in the coactivators and the C-terminal AF-2 domain in the receptors (Heery et al. (1997) Nature 387:733-736; Torchia et al. (1997) Nature 387:677-684). To identify the domains responsible for PGC-1-PPARγ interactions, different C-terminal deletions of PGC-1 were generated as reticulocyte translation products and mixed with a […] fusion protein. Deletions of PGC-1 were made using specific restriction sites in the PGC-1 cDNA closed in pBluescript. The following restriction enzymes were used for these deletions: full-length Xhol (aa-1-797), Haell (aa 1-675) Ncol (aa 1-503), Xbal (aa 1-403), Kpnl (aa 1-338), and Stul (aa 1-292). These were then translated into vitro with an [^35S]methionine-label. One microliter of each in vitro translation reaction was resolved by SDS-PAGE and autoradiographed.
FIG. 4 summarizes the input of both the full-length PGC-1(1-797) and the 1-675 deletion which bind to the immobilized PPARγ.

Molecule: CC1=C(/C=C/C(C)=C/C=C/C(C)=C/C(=O)O)C(C)(C)CCC1 [all-trans retinoic acid]
ligand dependency of PGC-1 interaction with the retinoic acid receptor (retinoic acid receptor): strong ligand dependency

Molecule: CC(C)NCC(O)c1ccc(O)c(O)c1 (stereo not shown) [isoproterenol]
PGC-1 mRNA (HIB 1B brown fat cells): sharp increase | UCP-1 mRNA (HIB 1B brown fat cells): sharp increase

B1: PGC-1 1-503: C-terminal deletion of PGC-1, aa 1-503, lacks the SR and RNA-binding domains (protein)
chain: MAWDMCSQDSVWSDIECAALVGEDQPLCPDLPELDLSELDVNDLDTDSFLGGLKWCSDQSEIISNQYNNEPANIFEKIDEENEANLLAVLTETLDSLPVDEDGLPSFDALTDGAVTTDNEASPSSMPDGTPPPQEAEEPSLLKKLLLAPANTQLSYNECSGLSTQNHAANHTHRIRTNPAIVKTENSWSNKAKSICQQQKPQRRPCSELLKYLTTNDDPPHTKPTENRNSSRDKCASKKKSHTQPQSQHAQAKPTTLSLPLTPESPNDPKGSPFENKTIERTLSVELSGTAGLTPPTTPPHKANQDNPFKASPKLKPSCKTVVPPPTKRARYSECSGTQGSHSTKKGPEQSELYAQLSKSSGLSRGHEERKTKRPSLRLFGDHDYCQSLNSKTDILINISQELQDSRQLDFKDASCDWQGHICSSTDSGQCYLRETLEASKQVSPCSTRKQLQDQEIRAELNKHFGHPCQAVFDDKSDKTSELRDGDFSNEQFSKLPVFINSG
percentage of input material that bound to PPARγ (PPARγ): 18%

B2: PGC-1 1-292: C-terminal deletion of PGC-1, aa 1-292, still contains the LXXLL motif (protein)
chain: MAWDMCSQDSVWSDIECAALVGEDQPLCPDLPELDLSELDVNDLDTDSFLGGLKWCSDQSEIISNQYNNEPANIFEKIDEENEANLLAVLTETLDSLPVDEDGLPSFDALTDGAVTTDNEASPSSMPDGTPPPQEAEEPSLLKKLLLAPANTQLSYNECSGLSTQNHAANHTHRIRTNPAIVKTENSWSNKAKSICQQQKPQRRPCSELLKYLTTNDDPPHTKPTENRNSSRDKCASKKKSHTQPQSQHAQAKPTTLSLPLTPESPNDPKGSPFENKTIERTLSVELSGTAG
percentage of input material that bound to PPARγ (PPARγ): completely loses the ability to interact with PPARγ

Continued, values first:

ligand dependency of PGC-1 interaction with PPARδ (PPARδ): slight ligand dependency
Molecule: CCCCC[C@H](O)/C=C/[C@@H]1[C@H]2C/C(=C/CCCC(=O)O)C[C@H]2C[C@H]1O [carboprostacyclin]

ligand dependency of PGC-1 interaction with PPARα (PPARα): slight ligand dependency
Molecule: CCCCC/C=C\C[C@@H](O)/C=C/C=C/C=C\[C@@H](O)CCCC(=O)O [leukotriene-4]
